For 63 compounds, melting point results are on record in a melting point compilation (Tetko et al.; mined from patent text by program, amines drawn as free bases though some values may be those of a salt).

Structures are written as SMILES.

Usually melting point stands for the temperature, or range, at which the solid turns liquid. As for `CSc1ccc(NC(=O)NCc2cc(C(C)(C)C)c(O)c(C(C)(C)C)c2)cc1`, the melting point fell in the range of 141 to 145 °C. The result for `CSCc1c(Cl)ccc(C(=O)c2cnoc2C2CC2)c1SC` reads 79.9 to 80.5 °C; that for `Cc1nn(-c2ccc(F)cc2F)cc1C(=O)O`, 245 to 247 °C; that for `COc1ccc(C2=NOC(C)(/C(N)=C/OC(C)=O)C2)cc1OC1CCCC1` (stereo not drawn), 131 °C. Consider `CC(C)(C)OC(=O)Nc1ccc(-c2ccc(F)cc2)cc1[N+](=O)[O-]`, for which the melting point was 155 to 167 °C. Compound `CCOC(=O)CCOc1cccc2c1CCCC2=O` registered a melting point of 57 to 59 °C. The result for `NC(=O)/C=C1/c2cc(F)ccc2CC1O[N+](=O)[O-]` (stereo not drawn) reads 162 to 163 °C; that for `N#CCNCCc1c[nH]c2ccc(Cl)cc12`, 80 °C.

Compound `O=C1CN(c2ccccc2)C(=S)N1C1CCCCC1` registered a melting point of 156 °C. Turning to `CCOC(=O)CC[C@H](NC(=O)c1ccc(N)c(C)c1)C(=O)OCC`, the melting point was in the range of 79 to 82 °C.

For the compound `CC(O)c1cc2c(c(Cl)n1)OCC2C` (stereo not drawn), the melting point lay within 67 to 68 °C. `Cc1ccccc1C1(O)C=C(C(C)(C)C)C(=O)C(C(C)(C)C)=C1` yielded a melting point of 168 to 171 °C. The result for `CN1CCN(C2CCN(c3ccc(Nc4ncc5cc6ccccc6n5n4)cc3)CC2)CC1` reads 226 to 229 °C; that for `CCOC(=O)N1CCC(NC(=S)Nc2cncnc2NCc2ccco2)CC1`, 193 °C.

As for `Cc1cc(COc2cccc3c2CN(C2CCC(=O)NC2=O)C3=O)nn1C` (stereo not drawn), the melting point is 214 to 216 °C. The result for `COc1ccc2c(c1O)CCN(C=O)[C@@H]2c1cc(OC)c(OC)c(OC)c1` reads 190 to 192 °C; that for `O=C(NCc1cccc(-c2ccc(CS(=O)(=O)Cc3n[nH]c(=O)[nH]3)cc2)c1)c1nc2ccccc2c(=O)[nH]1`, 245 to 247 °C. Under `N#Cc1cc(C=O)ccc1-n1cncn1` stands 134 to 141 °C; under `COc1cccc(CCN2C(=O)c3ccccc3C2(O)c2ccc(C(F)(F)F)cc2)c1` (stereo not drawn), 167 °C; under `CCCCCc1nc(O)c(-c2ccccc2)s1`, 128 to 130 °C. Under `COc1ccc(C(=O)C(CCC(=O)c2ccc(F)cc2)c2ccc(OC)cc2)cc1` (stereo not drawn) stands 71 to 74 °C; under `CCOc1nn(-c2c(Cl)cc(Cl)cc2Cl)c(N2C(=O)c3ccccc3C2=O)c1C(=O)c1ccccc1Cl`, 215 to 216 °C; under `Cc1ccc(Br)c(S(=O)O)c1`, 120 to 122 °C. Consider `Cc1cc(O)c(SCc2ccccc2F)c(=O)o1`, for which the melting point was 123 to 125 °C. `CCCCCCCCCCCC(=O)Nc1cc([N+](=O)[O-])ccc1F`: the melting point fell in the range of 75 to 77 °C. The result for `CCCCCCC1CCC2C(CCC3CC(=O)CCC32)C1` (stereo not drawn) reads 49 °C; that for `CCCN1Cc2c(Cl)nc(Cl)nc2N1`, 80 to 84 °C; that for `NC(=O)c1cnc2n(c1=O)CCCCC2`, 234 to 235 °C. Under `COc1c(C)c(C)c2c(c1C)C(c1ccc(CBr)cc1)C(C)(C)O2` (stereo not drawn) stands 97 to 98 °C.

`COc1cc(OCc2ccncc2)ccc1/C=C/c1cc(/C=C/c2cccc3[nH]ccc23)n[nH]1` showed a melting point of 207 to 215 °C. Under `CN1CCN(c2cccc3c2C=C(C#N)CC3)CC1` stands 104 to 105 °C. Under `CN1Cc2ccccc2[C@H]2c3cccc4[nH]cc(c34)C[C@@H]21` (relative stereo) stands 215 °C; under `CC(=O)N1CCc2cc(O)ccc2C1`, 135 to 136 °C. Under `O=C1NC(=C(Br)c2ccccc2)C(=O)C1=NO` stands 158 °C; under `O=C(Nc1ccc2ccc(Cl)nc2n1)c1ccc(Br)o1`, 285 °C; under `CCOC(=O)C1=C[C@@H]2OC(C)=N[C@@H]2[C@@H](NC(=O)OC(C)(C)C)C1`, 45 to 49 °C. `CCCCOc1nc(N)c2nc(OC)n(CCNc3cccc(CC(=O)OC)c3)c2n1` displayed a melting point of 119 to 120 °C. Turning to `Cc1cccc2ncc(C(=O)NC3CCCCC3)c(=O)n12`, the melting point was 174 to 176 °C. Under `CCCC(Cl)(Cl)C(NC(=O)c1ccc(Cl)cc1)NC(=N[N+](=O)[O-])Nc1cccnc1` (stereo not drawn) stands 198 to 200 °C. Consider `O=C(CCc1ccc2cc(F)ccc2n1)NO`, for which the melting point was 208 to 210 °C. The result for `CCOP(=O)(/C=C/c1cn(-c2ccccc2)nc1OCc1ccc(OCc2nc(-c3ccccc3)sc2C)c(OC)c1)OCC` reads 110 to 111 °C; that for `C#CCN(C(=O)n1oc(C)c(Cl)c1=O)c1ccc(C)cc1`, 79 °C; that for `O=C(O)c1ccc(OCCNC(=O)C2Cc3ccccc3N2S(=O)(=O)c2ccc(-c3ccc(F)cc3)cc2)cc1` (stereo not drawn), 108 °C. The result for `CCC1=NC(NC(=O)Nc2cccc(C)c2)C(=O)N(CC(=O)N2CCCCCCC2)c2c(C)cccc21` (stereo not drawn) reads 189 to 190 °C. The result for `NNC1NS(=O)(=O)c2ccccc21` (stereo not drawn) reads 249 °C; that for `Cc1ccc(Oc2ccccc2-n2cc(C(=O)O)nn2)c(O)c1`, 168 to 169 °C. `O=C(O)Cc1nn(Cc2ccc(Br)cc2F)c(=O)c2c(F)cccc12` came in with a melting point of 173 to 175 °C.

For `COc1cc2c(cc1O)C1Cc3c(Cl)cc(OC)c(OCC(=O)O)c3CN1CC2` (stereo not drawn), the melting point was in the range of 172 to 174 °C.

Compound `Nc1ccc(CCCc2ccc(Nc3ccccc3C(=O)O)cc2)cc1` gave a melting point of 110 to 112 °C. The result for `Cc1cc(-c2cc(C(F)(F)F)n3ncc(C(=O)O)c3n2)ccc1C(F)(F)F` reads 250 °C; that for `CN(C)CC#CCN1CCNC1=O`, 83 to 87 °C; that for `CCOC(=O)C1C(=O)CC(C)(O)C(C(=O)OCC)C1c1ccc2c(C)c(C)oc2c1` (stereo not drawn), 183 to 185 °C. Under `OC1C(COCC(F)(F)F)OC(n2cnc3c(NC4CCOCC4)ncnc32)C1O` (stereo not drawn) stands 80 to 82 °C; under `CC(=O)OC1CSC(Oc2ccc(C)nc2-c2cccnc2)C(OC(C)=O)C1OC(C)=O` (stereo not drawn), 92 to 102 °C; under `Oc1nc(-c2ccc(Cl)cc2)nc2c1CCC2`, 282 °C. Under `CC1=C(C(=O)O)CCc2ccccc21` stands 127 °C; under `CCN(CC)C(=O)c1ccc(-c2cc3c(Nc4cccc(Cl)c4)ncnc3[nH]2)cc1`, above 250 °C; under `CCN(CC)C(=O)Nc1ccc(S(=O)(=O)N2C(=O)C(CCCN(C)C)(c3ccccc3F)c3cc(C)c(OC)cc32)cc1F` (stereo not drawn), 82 °C.

Consider `COC(=O)c1ccc(-c2cccc(OCc3ccc(COC(=O)c4ccccc4)c(COC(=O)c4ccccc4)c3)c2)cc1`, for which the melting point was in the range of 71 to 72 °C.

In turn, `CC(=O)NCn1cc(-c2nc(Nc3ccccn3)sc2C)cn1` yielded a melting point of 175 °C.

`COc1cc(COc2nn(-c3ccccc3)cc2/C=C/c2nnc(C)o2)ccc1OCc1nc(-c2ccco2)oc1C` came in with a melting point of 186 to 187 °C. The result for `CC(C)(C)C(NC(=O)c1cc(Cl)cc(Cl)c1)Nc1c(Nc2cccnc2)c(=O)c1=O` (stereo not drawn) reads 260 to 262 °C; that for `COCCOc1ccc(/C=C/C(=O)O)c(Oc2ncc(C(F)(F)F)cc2Cl)c1`, 132 °C.
